From paper PMC3500254, “Potent Inhibition of Late Stages of Hepadnavirus Replication by a Modified Cell Penetrating Peptide” (PLoS ONE, 2012)

Columns and labels:
[1] = system: Duck Hepatitis B Virus (DHBV); test: Intracellular viral RNA and DNA replicative forms in infected PDH (Northern and Southern blot); format: cell-based; settings: 5 days, 3-TC as control
Protocol: (§1) To determine whether the decrease in DHBV secretion is caused by an inhibition of virus replication, LMH-D2 cells and PDHs were treated with different concentration of Deca-(Arg)8 followed by quantification of viral RNA and intracellular DNA replication intermediates by Northern and Southern blot, respectively. As a control, cells were treated by 3-TC, which is a specific inhibitor of the DHBV polymerase, [33]. […] An unspecific effect on transcription can be excluded as mRNA synthesis in transfected LMH-D2 cells was not impaired.
(§2) Figure 4 Effect of Deca-(Arg)8 on the intracellular hepadnavirus intermediate replicative forms. Infected PDH (A), and stably DHBV-transfected LMH-D2 (B) cells were treated with different amounts of Deca-(Arg)8 ranking from 0.5 µM to 2 µM for 5 days. At the end of treatment, the cells were harvested and lysed for DNA and RNA extraction. […] For the Northern blot the level of DHBV RNA was normalized on the GAPDH RNA amount. […] Bands corresponding to the expected size of relaxed circular (RC), linear (L), single-stranded (SS) and covalently closed circular (ccc) DHBV DNA are indicated. […]
(§3) Cells supernatants were harvested daily, spotted onto positively charged nylon membrane and extracellular DHBV DNA was detected in supernatant of cells by dot blot hybridization assay using a full-length ^32P-labelled DHBV probe as described previously. […]

[2] = system: Duck Hepatitis B Virus (DHBV); test: Intracellular viral RNA and DNA replicative forms in LMH-D2 cells (Northern and Southern blot); format: cell-based; settings: 5 days, Deca-(Arg)8 at 2 µM, 3-TC as control, Northern blot normalized on GAPDH RNA
Protocol: as §1, §2, §3

Compound: Nc1ccn([C@@H]2CS[C@H](CO)O2)c(=O)n1 [3-TC, Lamivudine]
- viral RNA levels ([1]; PDH, Deca-(Arg)8 at 2 µM, Northern blot normalized on GAPDH RNA): reduction of viral mRNA synthesis
- cccDNA ([1]; infected PDH, Deca-(Arg)8 0.5 µM to 2 µM, Southern blot): prevented cccDNA formation
- viral RNA levels [2]: not impaired
